Reference: PubChem BioAssay AID330 (DTP/NCI, 2004)
Several values for one entry are separate records, joined by “and”; a condition that tells them apart may be missing. Equal values may be shown once. Toxic doses and inconclusive results are not listed. Rule for the calls: active = survival T/C of 150% or more; inactive = T/C below 125% in these data.

System: P388 leukemia ip, CD2F1 mice, survival T/C
Assay: NCI In Vivo Anticancer Drug Screen. Data for tumor model P388 Leukemia (intraperitoneal) in CD2F1 (CDF1) mice
Details: endpoint: median survival time, higher = longer survival
How it was run: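 Mice carrying the transplanted tumor received test compound or vehicle. Survival was recorded in each group, and the value is the treated-group measurement divided by that of the vehicle-treated control group.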

[1] = dose: 50.0 mg/kg/injection, schedule: Q01DX005 (ip), vehicle: saline with Tween-80
[2] = dose: 100.0 mg/kg/injection, schedule: Q01DX005 (ip), vehicle: saline with Tween-80
[3] = dose: 200.0 mg/kg/injection, schedule: Q01DX005 (ip), vehicle: saline with Tween-80
[4] = dose: 50.0 mg/kg/injection, schedule: Q01DX009 (ip), vehicle: saline
[5] = dose: 100.0 mg/kg/injection, schedule: Q01DX009 (ip), vehicle: saline
[6] = dose: 200.0 mg/kg/injection, schedule: Q01DX009 (ip), vehicle: saline
[7] = dose: 25.0 mg/kg/injection, schedule: Q01DX005 (ip), vehicle: saline with Tween-80
[8] = dose: 100.0 mg/kg/injection, schedule: Q01DX009 (ip), vehicle: saline with Tween-80
[9] = dose: 200.0 mg/kg/injection, schedule: Q01DX009 (ip), vehicle: saline with Tween-80
[10] = dose: 60.0 mg/kg/injection, schedule: Q01DX005 (ip), vehicle: saline with Tween-80
[11] = dose: 120.0 mg/kg/injection, schedule: Q01DX005 (ip), vehicle: saline with Tween-80
[12] = dose: 240.0 mg/kg/injection, schedule: Q01DX005 (ip), vehicle: saline with Tween-80
[13] = dose: 30.0 mg/kg/injection, schedule: Q01DX005 (ip), vehicle: saline with Tween-80

Measured: T/C

CC1(C)/C=C/C2=Nc3cc(Br)c(Br)c(Br)c3C23CC(=O)N3/C=C(\Cl)c2nc(Br)[nH]c21 (stereo not drawn)
inactive: dose: 0.7 mg/kg/injection, schedule: Q01DX005 (ip), vehicle: Klucel (hydroxypropylcellulose) (HPC) 106 % of control | dose: 1.4 mg/kg/injection, schedule: Q01DX005 (ip), vehicle: Klucel (hydroxypropylcellulose) (HPC) 101 % of control | dose: 2.8 mg/kg/injection, schedule: Q01DX005 (ip), vehicle: Klucel (hydroxypropylcellulose) (HPC) 97 % of control | dose: 5.6 mg/kg/injection, schedule: Q01DX005 (ip), vehicle: Klucel (hydroxypropylcellulose) (HPC) 112 % of control

CCN1/C(=C/C=C/C=C/c2sc3ccccc3[n+]2CC)Sc2ccccc21
inactive: dose: 0.05 mg/kg/injection, schedule: Q01DX009 (ip), vehicle: saline 123 % of control | dose: 0.06 mg/kg/injection, schedule: Q01DX009 (ip), vehicle: saline 124 % of control | dose: 0.08 mg/kg/injection, schedule: Q01DX009 (ip), vehicle: saline 107 % of control | dose: 0.12 mg/kg/injection, schedule: Q01DX009 (ip), vehicle: saline 117 % of control and 122 % of control | dose: 0.25 mg/kg/injection, schedule: Q01DX009 (ip), vehicle: saline 123 % of control | dose: 0.28 mg/kg/injection, schedule: Q01DX009 (ip), vehicle: saline 123 % of control

[O-][n+]1c2ccccc2[n+]([O-])c2c3ccccc3[nH]c21
inactive: [1] 95 % of control | [2] 95 % of control | [3] 88 % of control

Cn1c(=O)c2c(ncn2CCCl)n(C)c1=O
inactive: dose: 12.5 mg/kg/injection, schedule: Q01DX005 (ip), vehicle: distilled water + Tween-80 100 % of control | dose: 25.0 mg/kg/injection, schedule: Q01DX005 (ip), vehicle: distilled water + Tween-80 105 % of control | dose: 50.0 mg/kg/injection, schedule: Q01DX005 (ip), vehicle: distilled water + Tween-80 105 % of control | dose: 100.0 mg/kg/injection, schedule: Q01DX005 (ip), vehicle: distilled water + Tween-80 102 % of control

O=C1C2=C(C(=O)c3ncccc31)C1C=CC2CC1 (stereo not drawn)
inactive: dose: 25.0 mg/kg/injection, schedule: Q01DX005 (ip), vehicle: DMSO 100 % of control | dose: 50.0 mg/kg/injection, schedule: Q01DX005 (ip), vehicle: DMSO 100 % of control | dose: 50.0 mg/kg/injection, schedule: Q01DX005 (ip), vehicle: Klucel + Tween-80 102 % of control | dose: 100.0 mg/kg/injection, schedule: Q01DX005 (ip), vehicle: DMSO 104 % of control | dose: 100.0 mg/kg/injection, schedule: Q01DX005 (ip), vehicle: Klucel + Tween-80 96 % of control

Fc1cccc(NC(=S)SCc2ccc(Cl)c(Cl)c2)c1
inactive: dose: 50.0 mg/kg/injection, schedule: Q01DX009 (ip), vehicle: suspension in saline 99 % of control | dose: 100.0 mg/kg/injection, schedule: Q01DX009 (ip), vehicle: suspension in saline 93 % of control | dose: 200.0 mg/kg/injection, schedule: Q01DX009 (ip), vehicle: suspension in saline 109 % of control

CC(C)CC(NC(=O)C(N)Cc1c[nH]c2ccccc12)C(=O)O (stereo not drawn)
inactive: [4] 96 % of control | [5] 95 % of control | [6] 118 % of control

CCOC(=O)C[n+]1cccc(S(=O)(=O)NC)c1
inactive: dose: 12.5 mg/kg/injection, schedule: Q01DX009 (ip), vehicle: saline 94 % of control | dose: 25.0 mg/kg/injection, schedule: Q01DX009 (ip), vehicle: saline 94 % of control | [4] 93 % of control

CC(C)(C)c1cc(CCCCCCCC2(CCCCCCCc3cc(C(C)(C)C)cc(C(C)(C)C)c3)OC(COCCOCCOCCCC#N)C(COCCOCCOCCCC#N)O2)cc(C(C)(C)C)c1 (stereo not drawn)
inactive: [7] 97 % of control | [1] 95 % of control | [2] 113 % of control | [3] 100 % of control

COc1cccc2c1C(=O)c1c(O)c3c(c(O)c1C2=O)CC(O)(C(C)=O)CC3OC1CC(NC2=CC(=O)CC(C)(C)C2)C(O)C(C)O1 (stereo not drawn)
inactive: dose: 3.13 mg/kg/injection, schedule: Q04DX003 (ip), vehicle: distilled water + Tween-80 103 % of control | dose: 6.25 mg/kg/injection, schedule: Q04DX003 (ip), vehicle: distilled water + Tween-80 103 % of control | dose: 12.5 mg/kg/injection, schedule: Q04DX003 (ip), vehicle: distilled water + Tween-80 100 % of control | dose: 25.0 mg/kg/injection, schedule: Q04DX003 (ip), vehicle: distilled water + Tween-80 100 % of control | dose: 50.0 mg/kg/injection, schedule: Q04DX003 (ip), vehicle: distilled water + Tween-80 109 % of control

COC(=O)C(C)CSc1ccccc1 (stereo not drawn)
inactive: dose: 60.0 mg/kg/injection, schedule: Q01DX005 (ip), vehicle: saline 99 % of control | dose: 120.0 mg/kg/injection, schedule: Q01DX005 (ip), vehicle: saline 107 % of control

CN(CC(=O)NC(Cc1c[nH]c2ccccc12)C(=O)O)C(=O)OCc1ccccc1 (stereo not drawn)
inactive: [1] 96 % of control | [2] 102 % of control | [3] 98 % of control

CC(C)C(O)(C(=O)OCC1=CC[N+]2(C)CCC(O)C12)C(C)O (stereo not drawn)
inactive: dose: 25.0 mg/kg/injection, schedule: Q01DX005 (ip), vehicle: water 103 % of control | dose: 50.0 mg/kg/injection, schedule: Q01DX005 (ip), vehicle: water 108 % of control | dose: 100.0 mg/kg/injection, schedule: Q01DX005 (ip), vehicle: water 103 % of control | dose: 200.0 mg/kg/injection, schedule: Q01DX005 (ip), vehicle: water 100 % of control

C=CC(=C)CCC=C(C)C
inactive: [8] 104 % of control | dose: 100.0 mg/kg/injection, schedule: Q04DX003 (ip), vehicle: saline with Tween-80 110 % of control | [9] 113 % of control | dose: 200.0 mg/kg/injection, schedule: Q04DX003 (ip), vehicle: saline with Tween-80 110 % of control | dose: 400.0 mg/kg/injection, schedule: Q04DX003 (ip), vehicle: saline with Tween-80 110 % of control

C1CN(CCSSCCN2CCOCC2)CCO1
inactive: [4] 104 % of control | [5] 113 % of control | [6] 109 % of control

CCCNC(=O)c1ccccc1C(=O)NC1(C(=O)NCCC)CCCC1
inactive: [1] 97 % of control | [2] 96 % of control | [3] 96 % of control

[Mn+2].[NH-]CC(=O)NC(Cc1ccccc1)C(=O)O.[NH-]CC(=O)NC(Cc1ccccc1)C(=O)O (stereo not drawn)
inactive: dose: 100.0 mg/kg/injection, schedule: Q04DX003 (ip), vehicle: saline 113 % of control | dose: 200.0 mg/kg/injection, schedule: Q04DX003 (ip), vehicle: saline 116 % of control

CCOc1ccc2ccc3cccnc3c2n1
inactive: [10] 96 % of control | [11] 94 % of control | [12] 99 % of control

Cc1cc2nc(Nc3nc(C)c(C)c(=O)[nH]3)[nH]c2cc1C
inactive: [4] 108 % of control | [5] 102 % of control | [6] 90 % of control

C/C(=N\Nc1ccc([N+](=O)[O-])cc1[N+](=O)[O-])c1ccc[nH]1
inactive: dose: 15.0 mg/kg/injection, schedule: Q01DX005 (ip), vehicle: saline with Tween-80 96 % of control | [13] 87 % of control | [10] 89 % of control

CC(C)(C)N=C(CCC(C#N)(C#N)CCC(=NC(C)(C)C)Nc1c(Cl)cccc1Cl)Nc1c(Cl)cccc1Cl
inactive: dose: 50.0 mg/kg/injection, schedule: Q01DX009 (ip), vehicle: saline with Tween-80 99 % of control | [8] 92 % of control | [9] 92 % of control

O=C1C=C2OCOC2=CC1=O
inactive: dose: 4.38 mg/kg/injection, schedule: Q01DX005 (ip), vehicle: Klucel (hydroxypropylcellulose) (HPC) 100 % of control | dose: 8.75 mg/kg/injection, schedule: Q01DX005 (ip), vehicle: Klucel (hydroxypropylcellulose) (HPC) 99 % of control | dose: 17.5 mg/kg/injection, schedule: Q01DX005 (ip), vehicle: Klucel (hydroxypropylcellulose) (HPC) 103 % of control and 104 % of control

COc1cc2cc[n+]3c4ccc([N+](=O)[O-])cc4ccc3c2cc1OC
inactive: [3] 89 % of control

C(=N\N=C1c2ccccc2-c2ccccc21)/c1ccc2ccc3cccc4ccc1c2c34
inactive: dose: 12.5 mg/kg/injection, schedule: Q01DX005 (ip), vehicle: saline with Tween-80 93 % of control | [7] 95 % of control | [13] 88 % of control | [1] 91 % of control | [10] 86 % of control | [11] 88 % of control | [12] 89 % of control

CCN(CC)C(=O)/C(C)=C1/c2ccccc2S(=O)(=O)N1C
inactive: dose: 100.0 mg/kg/injection, schedule: Q04DX003 (ip), vehicle: Klucel (hydroxypropylcellulose) (HPC) 109 % of control | dose: 200.0 mg/kg/injection, schedule: Q04DX003 (ip), vehicle: Klucel (hydroxypropylcellulose) (HPC) 94 % of control | dose: 400.0 mg/kg/injection, schedule: Q04DX003 (ip), vehicle: Klucel (hydroxypropylcellulose) (HPC) 98 % of control
